The nature of this series: Degradation of ferrate (K2FeO4) in solution at various pH. Format: physicochemical. Here is the method: FIG. 1 is a profile of the ferrate concentration starting at 0.1% (5 mM) at the native pH of K2FeO4, about 10.7. […] FIGS. 2 and 3 show the ferrate degrading faster at the higher pH's recommended by the Ciampi et al patent(s). Within about 21-46 minutes in the range of pH 11.2-11.8 the ferrate completely degraded. At this higher pH the Fe(OH)3 forms much faster and contributes to the acceleration in degradation.
FIG. 4 discloses a slightly lower pH of 10.4 which was buffered to approximately pH 9 with NaOH. Ferrate was detected in the solution for about four hours.

As to K2FeO4, the “time ferrate was detected in the solution” value (pH 10.4, buffered to approximately pH 9 with NaOH (FIG. 4)) is recorded as “about four”. In addition, the “time within which the ferrate completely degraded” value (pH 11.2-11.8 (FIGS. 2 and 3)) was 21 to 46 min. Under “starting at 0.1% (5 mM), native pH of K2FeO4 about 10.7 (FIG. 1)”, the “time ferrate was present in the solution” value is “about 220 minutes”.

(Values after patent US20110142959A1, “METHODS, SYSTEMS AND COMPOSITIONS INVOLVED IN THE SYNTHESIS OF NONSTABLE COMPOUNDS” (priority 2009, published 2011).)
